Square brackets hold non-standard residues; d marks the D form. Peptide text beside a SMILES is read from it. * marks the point of attachment. Cbz = O=C(OCc1ccccc1)*
Legend:
[1] = system: U266, KMS-11, NCI-H929, BJAB and U937 tumour cell lines; assay: [3H]thymidine incorporation assay in tumour cell lines at 10 μM; format: cell-based, human; details: up to 144 hrs, result in words
Description: All experiments were performed in triplicate.

Gadd45β/MKK7 interaction [2] = molecular target: T1, Gadd45β/MKK7 interaction (Homo sapiens, UniProt O14733); assay: ELISA competition assay after 48-hr pre-incubation with human serum at 37° C.; format: binding; details: for stability after pre-incubation with human serum: result in words
T1 construct: The GST-fused full-length kinase was coated for 16 h at 4° C., at a concentration of 42 nM; made in house
T1 sequence (O14733 1-419): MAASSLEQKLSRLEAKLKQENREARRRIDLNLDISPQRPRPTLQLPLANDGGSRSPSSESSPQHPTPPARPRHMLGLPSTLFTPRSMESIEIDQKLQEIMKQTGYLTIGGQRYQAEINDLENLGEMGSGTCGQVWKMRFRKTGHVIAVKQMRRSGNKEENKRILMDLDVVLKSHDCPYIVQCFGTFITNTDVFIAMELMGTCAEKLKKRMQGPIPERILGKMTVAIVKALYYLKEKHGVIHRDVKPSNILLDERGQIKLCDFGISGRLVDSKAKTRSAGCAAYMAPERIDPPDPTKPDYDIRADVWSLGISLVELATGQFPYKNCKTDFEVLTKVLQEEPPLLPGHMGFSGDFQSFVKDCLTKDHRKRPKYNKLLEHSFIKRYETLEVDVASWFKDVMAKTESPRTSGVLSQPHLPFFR
Description: In FIG. 4, Gadd45β/MKK7 binding, competition ELISA assays were carried out to determine the stability of Z-conjugated D-tetrapeptides in human serum. […] ELISA were performed as described in FIG. 3 C. Briefly, 100 μl of 42 nM of recombinant GST-MKK7 in ELISA buffer (25 mM Tris pH 7.5, 150 mM NaCl, 1 mM DTT, 1 mM EDTA) were coated onto wells of 96-well plates by overnight incubation at 4° C. After blocking with 2% of NFDM for 1 hr at 37° C., plates were washed with TPBS, and then 21 nM of recombinant, biotinylated human (h)Gadd45β were added to the wells together with increasing concentrations of tetrapeptides which had either been subjected or had not been subjected to pre-incubation with human serum, as indicated. For a further discussion of the conditions used for the competition ELISA assay, the reader is directed to Tornatore et al 2008 JMB, 378: 97-111 and the references therein.

Gadd45β-inhibited MKK7 = molecular target: T2, Gadd45β-inhibited MKK7 (Homo sapiens, UniProt O14733); assay: MKK7 kinase assay in the presence of recombinant hGadd45β; format: biochemical; details: 1 nM or 5 nM peptide, 5 μM GST-hGadd45β
T2 construct: expressed in transfected cells; host or cells: HEK-293 (FLAG-MKK7); bacteria (GST-hGadd45β)
T2 sequence (O14733 1-419): T1 sequence (O14733 1-419)
Description: In FIG. 6, transient transfection of pcDNA-FLAG-MKK7 in HEK-293 cells was performed using the method of Ca3(PO4)2 precipitation, essentially as described in Papa, S et al., (2004) Nat. Cell Biol. 6, 146-153 and references therein. 36 hrs after transfection, the cells were treated with 100 ng/ml phorbol 12-myristate 13-acetate (PMA) and 1 μM ionomycin for 30 min at 37° C. Cell extracts were prepared as described in example 4 and used for immunoprecipitation with anti-FLAG antibodies (binding to FLAG-MKK7) as described in Papa, S et al., (2004) Nat. Cell Biol. 6, 146-153 and references therein. Briefly, 50 μg of cell lysate from PMA-ionomycin (P/D-treated or untreated, HEK-293 cells transiently expressing FLAG-MKK7 was incubated with 10 μl of anti-FLAG M2 Affinity Gel (SIGMA) for 4 hrs at 4° C. during rotation. The immunoprecipitates were then washed 3 times in lysis buffer and twice more in kinase buffer (10 mM HEPES, 5 mM MgCl2, 1 mM MnCl2,12.5 mM β-glycerophosphate, 2 mM DTT, 4 mM NaF and 0.1 mM Na3VO4). MKK7 catalytic activity was finally measured in kinase assays by incubating FLAG-MKK7 immunoprecipitates at 30° C. for 20 min with 20 μl of kinase buffer containing 2 μM of recombinant GST-JNK1 and 5 μCi of [γ-^32P]ATP) (kinase reaction), as described in Papa, S et a., (2004) Nat. Cell Biol. 6, 146-153 and references therein.
In some reactions, to test the ability of D-tetrapeptide antagonists to disrupt the Gadd45β-MKK7 interaction and so release the catalytic activity of MKK7 from Gadd45β-afforded inhibition, FLAG-MKK7 immunoprecipitates were 1) first pre-incubated for 10 min at 30° C. with either 1 nM or 5 nM of DTP1, DTP2 or negative control (NC) D-tetrapeptides, NC1, NC2, NC3 and NC4, and 2) then incubated for another 10 min at 30° C. with or without 5 μM of a GST-fusion protein of recombinant human (h)Gadd45β (GST-hGadd45β; purified from bacterial lysates as described in Papa, S., (2007) J. Biol. Chem. 282, 19029-19041), before using them for the kinase reaction described above, as indicated in FIG. 6.
In all cases, kinase reactions were terminated by the addition of Laemmli sample buffer. […] For a further discussion of MKK7 kinase assay conditions, the reader is directed to Papa, S et al., (2007) J. Biol. Chem. 282, 19029-19041 and Papa, S et al., (2004) Nat. Cell Biol. 6, 146-153 and the references therein.

Gadd45β/MKK7 interaction [3] = molecular target: T1, Gadd45β/MKK7 interaction; assay: ELISA competition assay of biotin-hGadd45β binding to coated GST-MKK7; details: Table III, modified peptides
How it was run: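 GST-MKK7 (42 nM) coated in Tris pH 7.5 buffer, 16 h, 4 °C; biotin-hGadd45β (21 nM) added with competitor peptides (0.01–100 nM), 1 h, 37 °C. Streptavidin-HRP/o-phenylenediamine read at 490 nm; binding expressed as % of signal without competitor.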

SMILES | restoration of MKK7 catalytic activity (Gadd45β-inhibited MKK7) | tumoricidal/cytotoxic activity in tumour cell lines [1] | IC50 (Gadd45β/MKK7 interaction [2]) | stability after pre-incubation with human serum (Gadd45β/MKK7 interaction [2]) | % Inhibition of Gadd45β-MKK7 binding (Gadd45β/MKK7 interaction [3])
NC(=O)[C@H](Cc1ccccc1)NC(=O)[C@H](Cc1c[nH]cn1)NC(=O)[C@H](CC(=O)O)NC(=O)[C@H](Cc1ccc(O)cc1)NC(=O)OCc1ccccc1 [Z-YDHF-NH2] (Cbz-YDHF-NH2) |  | not | > 10 µM | significant loss of activity | 
N=C(N)NCCC[C@H](NC(=O)[C@H](CCC(=O)O)NC(=O)[C@H](Cc1ccc(O)cc1)NC(=O)OCc1ccccc1)C(=O)N[C@@H](Cc1ccccc1)C(N)=O [Z-YERF-NH2] (Cbz-YERF-NH2) |  | low activity | > 10 µM | significant loss of activity | 78%

The next lines start with results.

restoration of MKK7 catalytic activity (Gadd45β-inhibited MKK7) | SMILES | tumoricidal/cytotoxic activity in tumour cell lines [1] | IC50 (Gadd45β/MKK7 interaction [2]) | stability after pre-incubation with human serum (Gadd45β/MKK7 interaction [2]) | % Inhibition of Gadd45β-MKK7 binding (Gadd45β/MKK7 interaction [3])
did not | CC(=O)N[C@@H](Cc1ccc(O)cc1)C(=O)N[C@@H](CC(=O)O)C(=O)N[C@@H](CCCCN)C(=O)N[C@@H](Cc1c[nH]c2ccccc12)C(N)=O [NC4, Acetyl-(L-Tyr)-(L-Asp)-(L-Lys)-(L-Trp)-NH2] (Ac-YDKW-NH2) |  |  |  | 
did not | CC(=O)N[C@@H](Cc1ccc(O)cc1)C(=O)N[C@@H](CCC(=O)O)C(=O)N[C@@H](CCCCN)C(=O)N[C@@H](Cc1c[nH]c2ccccc12)C(N)=O [NC3, Acetyl-(L-Tyr)-(L-Glu)-(L-Lys)-(L-Trp)-NH2] (Ac-YEKW-NH2) |  |  |  | 
did not | CC(=O)N[C@H](Cc1ccc(O)cc1)C(=O)N[C@H](CC(=O)O)C(=O)N[C@H](Cc1c[nH]cn1)C(=O)N[C@H](CCC(N)=O)C(N)=O [NC1, Acetyl-(D-Tyr)-(D-Asp)-(D-His)-(D-Gln)-NH2] (Ac-[dY][dD][dH][dQ]-NH2) |  |  |  | 
did not | CC(=O)N[C@@H](Cc1ccc(O)cc1)C(=O)N[C@@H](CC(=O)O)C(=O)N[C@@H](Cc1c[nH]cn1)C(=O)N[C@@H](C)C(N)=O [NC2, Acetyl-(L-Tyr)-(L-Asp)-(L-His)-(L-Ala)-NH2] (Ac-YDHA-NH2) |  |  |  | 
